# According to patent publication US20030232851A1, “Viral treatment” (The Procter & Gamble Company, priority 1999, published 2003):
# Several values for one entry are separate records, joined by “and”; a condition that tells them apart may be missing. Equal entries are not always repeated.
# Columns and labels:
# [1] = test system: U937KN1272, a protease resistant strain; assay: Long term in vitro study, U937KN1272, reverse transcriptase; assay type: cell-based, HIV
# Method: (§1) A microtiter-based reveres transcriptase (RT) reaction is utilized (Buckheit et al (1991) AIDS Research and Human Retroviruses 7:295-302). Tritiated thymidine triphosphate (NEN)(TTP) is resuspended in distilled water at 5 Ci/ml. Poly rA and oligo dT are prepared as a stock solution which is kept at −20° C. The RT reaction buffer is prepared fresh on a daily basis and consists of 125 μl 1M EGTA, 125 μl water, 125 μl Triton X-100, 50 μl Tris (pH 7.4), 50 μl 1 MDDT, and 40 μl 1M MgCl2. These three solutions are mixed together in a ratio of 1 part TTP, 2.5 parts poly rA:oligo dT, 2.5 parts reaction buffer and 4 parts distilled water. Ten microliters of this reaction mixture is placed in a round bottom microtiter place and 15 μl of virus containing supernatant is added and mixed. The plate is incubated at 37° C. for 60 minutes. Following reaction, the reaction volume is spotted onto filter mats, washed 6 times for 5 minutes each in a 5% sodium phosphate buffer, 2 times for 1 minute each in distilled water, 2 times for 1 minute each in 70% ethanol, and then dried. The dried filter mat is placed in a plastic sample bag, Betaplate scintillation fluid is added and the bag is heat sealed. Incorporated radioactivity is quantified utilizing a Wallac Microbeta scintillation counter.
# Acute infection of most established human cell lines with HIV-1 results in the eventual establishment of a constitutive virus-producing chronically infected cell line. The cells can be passaged for long periods of time in culture without loss of virus production. These cells may be utilized to evaluate the effects of anti-HIV compounds on syncytium formation or to evaluate the effects of anti-HIV compounds on levels of virus production from these cells. […] Each of the cells contains an integrated HIV genome or provirus. Chronically infected CEM, H9 and U937 cell lines have been prepared and cultured by Southern Research Institute, Frederick Md. and are available from them.
# CEM-SS cells chronically infected with HIV isolate, for example SKI (CEM-SKI) are cultured in RPMI1640 tissue culture medium supplemented with 10% fetal bovine serum and antibiotics. […] CEM-SKI or other infected cells with no added drug are used as the control cells. Cells are allowed to grow to a density of approximately 1×10^6 cells/ml and are then passaged at a 1:10 dilution. […] The drug concentration in the flask is then increased two-fold and the cells maintained as above.
# The cell populations contain integrated copies of the HIV genome and constitutively produce HIV at relatively high levels or are latently infected and only produce virus after stimulation with phorbol esters, tumor necrosis factor or IL6 (U1 and ACH2). Reductions in virus products were observed when quantifying supernatant reverse transcriptase activity,
# Similar results are obtained with U937KN1272, a protease resistant strain, reported below.
# HIV-2 virus, CEMROD = assay: In vitro screening against HIV-2 virus, CEMROD: reverse transcriptase activity; assay type: cell-based; design: Reverse Transcriptase Activity, samples 1-3 / Reverse Transcriptase Activity, average: unit not given here
# Method: as §1
# [2] = Table 2 duplicate study, 0.32 μg/ml
# [3] = Table 2 duplicate study, 1 μg/ml
# [4] = Table 2 duplicate study, 1.0 μg/ml
# [5] = Table 2 duplicate study, 3.2 μg/ml
# [6] = Table 2 duplicate study, 32 μg/ml
# [7] = Table 2 duplicate study, 100 μg/ml
smiles,measurement,setting,value
"c1csc(-c2nc3cccnc3[nH]2)c1 [2-(2-thienyl)-imidazolo [4,5-b]pyridine]",reverse transcriptase data,"[1]; 7 μg/ml, day 4",3503
same,reverse transcriptase data,"[1]; 7 μg/ml, day 11",10001
same,reverse transcriptase data,"[1]; 7 μg/ml, day 18",14176
same,reverse transcriptase data,"[1]; 7 μg/ml, day 25",14084
same,reverse transcriptase data,"[1]; 7 μg/ml, day 32",9919
same,reverse transcriptase data,"[1]; 7 μg/ml, day 39",8890
same,reverse transcriptase data,"[1]; 7 μg/ml, day 46",9238
same,reverse transcriptase data,"[1]; 7 μg/ml, day 53",9074
same,reverse transcriptase data,"[1]; 7 μg/ml, day 60",7460
same,reverse transcriptase data,"[1]; 7 μg/ml, day 67",7863
same,reverse transcriptase data,"[1]; 7 μg/ml, day 71",8402
same,reverse transcriptase data,"[1]; 7 μg/ml, day 74",8976
same,reverse transcriptase data,"[1]; 7 μg/ml, day 88",8522
same,reverse transcriptase data,"[1]; 7 μg/ml, day 95",9358
same,reverse transcriptase data,"[1]; 7 μg/ml, day 102",9221
same,reverse transcriptase data,"[1]; 7 μg/ml, day 109",8245
same,reverse transcriptase data,"[1]; 15 μg/ml, day 4",2354
same,reverse transcriptase data,"[1]; 15 μg/ml, day 11",7962
same,reverse transcriptase data,"[1]; 15 μg/ml, day 18",11866
same,reverse transcriptase data,"[1]; 15 μg/ml, day 25",13386
same,reverse transcriptase data,"[1]; 15 μg/ml, day 32",10413
same,reverse transcriptase data,"[1]; 15 μg/ml, day 39",8675
same,reverse transcriptase data,"[1]; 15 μg/ml, day 46",8124
same,reverse transcriptase data,"[1]; 15 μg/ml, day 53",7645
same,reverse transcriptase data,"[1]; 15 μg/ml, day 60",5534
same,reverse transcriptase data,"[1]; 15 μg/ml, day 67",4321
same,reverse transcriptase data,"[1]; 15 μg/ml, day 71",5364
same,reverse transcriptase data,"[1]; 15 μg/ml, day 74",6974
same,reverse transcriptase data,"[1]; 15 μg/ml, day 88",4297
same,reverse transcriptase data,"[1]; 15 μg/ml, day 95",5224
same,reverse transcriptase data,"[1]; 15 μg/ml, day 102",5361
same,reverse transcriptase data,"[1]; 15 μg/ml, day 109",7833
same,reverse transcriptase data,"[1]; 30 μg/ml, day 4",1209
same,reverse transcriptase data,"[1]; 30 μg/ml, day 11",4377
same,reverse transcriptase data,"[1]; 30 μg/ml, day 18",6376
same,reverse transcriptase data,"[1]; 30 μg/ml, day 25",9293
same,reverse transcriptase data,"[1]; 30 μg/ml, day 32",9903
same,reverse transcriptase data,"[1]; 30 μg/ml, day 39",6852
same,reverse transcriptase data,"[1]; 30 μg/ml, day 46",2502
same,reverse transcriptase data,"[1]; 30 μg/ml, day 53",2760
same,reverse transcriptase data,"[1]; 30 μg/ml, day 60",2478
same,reverse transcriptase data,"[1]; 30 μg/ml, day 67",1643
same,reverse transcriptase data,"[1]; 30 μg/ml, day 71",4820
same,reverse transcriptase data,"[1]; 30 μg/ml, day 74",3270
same,reverse transcriptase data,"[1]; 30 μg/ml, day 88",3184
same,reverse transcriptase data,"[1]; 30 μg/ml, day 95",2031
same,reverse transcriptase data,"[1]; 30 μg/ml, day 102",3427
same,reverse transcriptase data,"[1]; 30 μg/ml, day 109",1356
same,"Reverse Transcriptase Activity, % virus control","HIV-2 virus, CEMROD; Table 1, 0.32 μg/ml",119%
same,"Reverse Transcriptase Activity, average","HIV-2 virus, CEMROD; Table 1, 0.32 μg/ml",5947
same,"Reverse Transcriptase Activity, samples 1-3","HIV-2 virus, CEMROD; Table 1, 0.32 μg/ml",5878 and 5529 and 6435
same,"Reverse Transcriptase Activity, % virus control","HIV-2 virus, CEMROD; Table 1, 1 μg/ml",103.8%
same,"Reverse Transcriptase Activity, average","HIV-2 virus, CEMROD; Table 1, 1 μg/ml",5188
same,"Reverse Transcriptase Activity, samples 1-3","HIV-2 virus, CEMROD; Table 1, 1 μg/ml",5002 and 5086 and 5476
same,"Reverse Transcriptase Activity, % virus control","HIV-2 virus, CEMROD; Table 1, 1.0 μg/ml",48.1%
same,"Reverse Transcriptase Activity, average","HIV-2 virus, CEMROD; Table 1, 1.0 μg/ml",2403
same,"Reverse Transcriptase Activity, samples 1-3","HIV-2 virus, CEMROD; Table 1, 1.0 μg/ml",2812 and 2206 and 2190
same,"Reverse Transcriptase Activity, % virus control","HIV-2 virus, CEMROD; Table 1, 3.2 μg/ml",84.0%
same,"Reverse Transcriptase Activity, average","HIV-2 virus, CEMROD; Table 1, 3.2 μg/ml",4201
same,"Reverse Transcriptase Activity, samples 1-3","HIV-2 virus, CEMROD; Table 1, 3.2 μg/ml",4005 and 4017 and 4580
same,"Reverse Transcriptase Activity, % virus control","HIV-2 virus, CEMROD; Table 1, 32 μg/ml",8.1%
same,"Reverse Transcriptase Activity, average","HIV-2 virus, CEMROD; Table 1, 32 μg/ml",407
same,"Reverse Transcriptase Activity, samples 1-3","HIV-2 virus, CEMROD; Table 1, 32 μg/ml",382 and 390 and 450
same,"Reverse Transcriptase Activity, % virus control","HIV-2 virus, CEMROD; Table 1, 100 μg/ml",1.4%
same,"Reverse Transcriptase Activity, average","HIV-2 virus, CEMROD; Table 1, 100 μg/ml",72
same,"Reverse Transcriptase Activity, samples 1-3","HIV-2 virus, CEMROD; Table 1, 100 μg/ml",80 and 68
same,"Reverse Transcriptase Activity, % virus control","HIV-2 virus, CEMROD; [2]",116.6%
same,"Reverse Transcriptase Activity, average","HIV-2 virus, CEMROD; [2]",5616
same,"Reverse Transcriptase Activity, samples 1-3","HIV-2 virus, CEMROD; [2]",4758 and 5725 and 6365
same,"Reverse Transcriptase Activity, % virus control","HIV-2 virus, CEMROD; [3]",121.1%
same,"Reverse Transcriptase Activity, average","HIV-2 virus, CEMROD; [3]",5833
same,"Reverse Transcriptase Activity, samples 1-3","HIV-2 virus, CEMROD; [3]",4251 and 6264 and 6984
same,"Reverse Transcriptase Activity, % virus control","HIV-2 virus, CEMROD; [4]",51.1%
same,"Reverse Transcriptase Activity, average","HIV-2 virus, CEMROD; [4]",2463
same,"Reverse Transcriptase Activity, samples 1-3","HIV-2 virus, CEMROD; [4]",2776 and 2531 and 2081
same,"Reverse Transcriptase Activity, % virus control","HIV-2 virus, CEMROD; [5]",100.0%
same,"Reverse Transcriptase Activity, average","HIV-2 virus, CEMROD; [5]",4819
same,"Reverse Transcriptase Activity, samples 1-3","HIV-2 virus, CEMROD; [5]",5050 and 5352 and 4054
same,"Reverse Transcriptase Activity, % virus control","HIV-2 virus, CEMROD; [6]",4.1%
same,"Reverse Transcriptase Activity, average","HIV-2 virus, CEMROD; [6]",197
same,"Reverse Transcriptase Activity, samples 1-3","HIV-2 virus, CEMROD; [6]",173 and 177 and 241
same,"Reverse Transcriptase Activity, % virus control","HIV-2 virus, CEMROD; [7]",0.9%
same,"Reverse Transcriptase Activity, average","HIV-2 virus, CEMROD; [7]",44
same,efficacy in treating HIV (in words),"HIV-2 virus, CEMROD; at the higher concentrations",shows efficacy
